From ChEMBL document CHEMBL1201862, “PubChem BioAssay data set” (2004)
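Results reflect a 48-hour exposure of cells in 96-well plates to compound at five concentrations. GI50 = concentration required for 50% inhibition of growth.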 Active and inactive are the calls of the source. Cut-off read from the data, not from the text of the source: active = GI50 up to about 1.1 µM and inactive = higher.

How the values were obtained:
Assay in all cases: NCI anticancer screen, dose series, 48 h
786-0 = system: 786-0
A498 = system: A498
A549 = system: A549
ACHN = system: ACHN
CAKI-1 = system: CAKI-1
CCRF-CEM = system: CCRF-CEM
COLO 205 = system: COLO 205
DLD-1 = system: DLD-1
DMS-114 = system: DMS-114
DMS-273 = system: DMS-273
EKVX = system: EKVX
HCC 2998 = system: HCC 2998
HCT-116 = system: HCT-116
HCT-15 = system: HCT-15
HL-60 = system: HL-60
HOP-18 = system: HOP-18
HOP-62 = system: HOP-62
HOP-92 = system: HOP-92
HT-29 = system: HT-29
IGROV-1 = system: IGROV-1
K562 = system: K562
KM-20L2 = system: KM-20L2
KM12 = system: KM12
LOX IMVI = system: LOX IMVI
LXFL 529 = system: LXFL 529
M14 = system: M14
M19-MEL = system: M19-MEL
MOLT-4 = system: MOLT-4
Malme-3M = system: Malme-3M
NCI-H226 = system: NCI-H226
NCI-H23 = system: NCI-H23
NCI-H460 = system: NCI-H460
NCI-H522 = system: NCI-H522
OVCAR-3 = system: OVCAR-3
OVCAR-4 = system: OVCAR-4
OVCAR-5 = system: OVCAR-5
OVCAR-8 = system: OVCAR-8
RPMI-8226 = system: RPMI-8226
RXF 393 = system: RXF 393
SF-268 = system: SF-268
SF-295 = system: SF-295
SF-539 = system: SF-539
SK-MEL-28 = system: SK-MEL-28
SK-MEL-2 = system: SK-MEL-2
SK-MEL-5 = system: SK-MEL-5
SN12C = system: SN12C
SNB-19 = system: SNB-19
SNB-75 = system: SNB-75
SNB-78 = system: SNB-78
SR = system: SR
SW-620 = system: SW-620
TK-10 = system: TK-10
U-251 = system: U-251
UACC-257 = system: UACC-257
UACC-62 = system: UACC-62
UO-31 = system: UO-31
XF498 = system: XF498

## CN(C)CCC1(C2=CCCC2)CC/C(=C\c2ccccc2)C1=O (centres undefined)
786-0
  GI50: 14.7 µM (inactive)
A498
  GI50: 15.5 µM (inactive)
A549
  GI50: 20.3 µM (inactive)
ACHN
  GI50: 15.3 µM (inactive)
CAKI-1
  GI50: 12.5 µM (inactive)
CCRF-CEM
  GI50: 17.1 µM (inactive)
COLO 205
  GI50: 14.5 µM (inactive)
DLD-1
  GI50: 17.3 µM (inactive)
DMS-114
  GI50: 16.1 µM (inactive)
DMS-273
  GI50: 15.7 µM (inactive)
EKVX
  GI50: 11.8 µM (inactive)
HCC 2998
  GI50: 15.8 µM (inactive)
HCT-116
  GI50: 19.5 µM (inactive)
HCT-15
  GI50: 13 µM
HL-60
  GI50: 11.8 µM (inactive)
HOP-18
  GI50: 15.8 µM (inactive)
HOP-62
  GI50: 16.1 µM (inactive)
HOP-92
  GI50: 17.7 µM (inactive)
HT-29
  GI50: 17.1 µM (inactive)
IGROV-1
  GI50: 15.5 µM (inactive)
K562
  GI50: 13.8 µM (inactive)
KM-20L2
  GI50: 13.1 µM (inactive)
KM12
  GI50: 15.5 µM (inactive)
LOX IMVI
  GI50: 17.1 µM (inactive)
LXFL 529
  GI50: 16.1 µM (inactive)
M14
  GI50: 16.4 µM (inactive)
M19-MEL
  GI50: 15.2 µM (inactive)
MOLT-4
  GI50: 14.3 µM (inactive)
Malme-3M
  GI50: 15.7 µM (inactive)
NCI-H226
  GI50: 16.9 µM (inactive)
NCI-H23
  GI50: 21.8 µM (inactive)
NCI-H460
  GI50: 15.9 µM (inactive)
NCI-H522
  GI50: 14.1 µM (inactive)
OVCAR-3
  GI50: 15.2 µM (inactive)
OVCAR-4
  GI50: 16.6 µM (inactive)
OVCAR-5
  GI50: 19.6 µM (inactive)
OVCAR-8
  GI50: 16.1 µM (inactive)
RPMI-8226
  GI50: 14.6 µM (inactive)
RXF 393
  GI50: 12.5 µM (inactive)
SF-268
  GI50: 21.5 µM (inactive)
SF-295
  GI50: 19.1 µM (inactive)
SF-539
  GI50: 16.6 µM (inactive)
SK-MEL-28
  GI50: 21.8 µM (inactive)
SK-MEL-2
  GI50: 16.4 µM (inactive)
SK-MEL-5
  GI50: 14.7 µM (inactive)
SN12C
  GI50: 17 µM (inactive)
SNB-19
  GI50: 14.7 µM (inactive)
SNB-75
  GI50: 17 µM (inactive)
SNB-78
  GI50: 19.7 µM (inactive)
SR
  GI50: 25.2 µM (inactive)
SW-620
  GI50: 16.9 µM (inactive)
TK-10
  GI50: 15.6 µM (inactive)
U-251
  GI50: 16.6 µM (inactive)
UACC-257
  GI50: 15.2 µM (inactive)
UACC-62
  GI50: 13.6 µM (inactive)
UO-31
  GI50: 16.6 µM (inactive)

## Cc1cc(NS(=O)(=O)c2ccc(Nc3c4ccccc4nc4c(C(=O)NCCN(C)C)cccc34)cc2)no1
786-0
  GI50: 3.83 µM (inactive)
A549
  GI50: 3.29 µM (inactive)
ACHN
  GI50: 3.71 µM (inactive)
CCRF-CEM
  GI50: 1.08 µM (active)
COLO 205
  GI50: 6.12 µM (inactive)
DLD-1
  GI50: 11.8 µM (inactive)
DMS-114
  GI50: 0.713 µM (active)
DMS-273
  GI50: 2.86 µM (inactive)
EKVX
  GI50: 5.09 µM (inactive)
HCC 2998
  GI50: 3.87 µM (inactive)
HCT-116
  GI50: 4.79 µM (inactive)
HCT-15
  GI50: 18.5 µM
HL-60
  GI50: 0.152 µM (active)
HOP-62
  GI50: 2.09 µM (inactive)
HT-29
  GI50: 6.03 µM (inactive)
IGROV-1
  GI50: 2.37 µM (inactive)
K562
  GI50: 2.69 µM (inactive)
KM-20L2
  GI50: 26.4 µM (inactive)
KM12
  GI50: 9.25 µM (inactive)
LOX IMVI
  GI50: 1.35 µM (inactive)
LXFL 529
  GI50: 3.6 µM (inactive)
M14
  GI50: 5.08 µM (inactive)
M19-MEL
  GI50: 12.5 µM (inactive)
MOLT-4
  GI50: 0.208 µM (active)
NCI-H226
  GI50: 0.524 µM (active)
NCI-H23
  GI50: 4.46 µM (inactive)
NCI-H460
  GI50: 0.685 µM (active)
NCI-H522
  GI50: 0.813 µM (active)
OVCAR-4
  GI50: 10.7 µM (inactive)
OVCAR-5
  GI50: 17.9 µM (inactive)
OVCAR-8
  GI50: 4.18 µM (inactive)
RXF 393
  GI50: 5.6 µM (inactive)
SF-268
  GI50: 1.78 µM (inactive)
SF-295
  GI50: 8.38 µM (inactive)
SF-539
  GI50: 2.12 µM (inactive)
SK-MEL-28
  GI50: 10.9 µM (inactive)
SK-MEL-2
  GI50: 6.43 µM (inactive)
SK-MEL-5
  GI50: 2.49 µM (inactive)
SN12C
  GI50: 3.01 µM (inactive)
SNB-19
  GI50: 1.72 µM (inactive)
SNB-75
  GI50: 4.09 µM (inactive)
SNB-78
  GI50: 12.7 µM (inactive)
SR
  GI50: 0.272 µM (active)
SW-620
  GI50: 2.52 µM (inactive)
TK-10
  GI50: 35.1 µM (inactive)
U-251
  GI50: 2.3 µM (inactive)
UACC-62
  GI50: 2.55 µM (inactive)
XF498
  GI50: 18.3 µM (inactive)
